# Where “and” joins values, the source holds several entries; their conditions need not be identical. Equal entries are not always repeated.
# B1: cysteine-modified human troponin I binding peptide (-FYSHSFHENWPSC-) (peptide)
# peptide: FYSHSFHENWPSC
# notes: In all assays the peptide was attached to gold (Au surface of the QCM, or gold nanorods) by an Au-S linkage through its C-terminal cysteine; source: synthetic peptide, bought: Genscript USA Inc
# Assays:
# cTnI = biological target: T1, cTnI (Homo sapiens, UniProt P19429); conditions: identified from a phage display peptide library; cited from earlier work
# T1 construct: purchased Life Diagnostics, USA
# T1 sequence (P19429 whole entry): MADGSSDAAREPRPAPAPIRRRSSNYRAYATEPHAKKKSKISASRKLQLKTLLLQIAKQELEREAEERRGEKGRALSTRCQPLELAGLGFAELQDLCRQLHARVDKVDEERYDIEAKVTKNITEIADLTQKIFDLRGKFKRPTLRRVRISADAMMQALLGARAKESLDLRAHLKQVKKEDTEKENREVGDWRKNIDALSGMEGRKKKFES
# Excerpt: Gold nanorods (AuNR) are an attractive choice as plasmonic nanotransducers for label-free sensing because of their geometrical tunability of LSPR wavelength and high sensitivity. We synthesized AuNRs using a seed-mediated approach with a length of 47.3 ± 2.3 nm and a diameter of 20.2 ± 1.4 nm (Fig. 2A). The human troponin I binding peptide (-FYSHSFHENWPS-), identified from a phage display peptide library, with nanomolar (nM) binding affinity to cTnI was employed here as the biorecognition element. The conjugation of the peptide to AuNRs as achieved by introducing a cysteine residue at ...
# [1] = Distance-dependent refractive index sensitivity of AuNR (layer-by-layer); format: physicochemical
# Excerpt: We probed the distance-dependent sensitivity of the AuNRs, nanotransducers used in this study, by depositing polyelectrolyte multilayers using layer-by-layer (LbL) assembly. Extinction spectra were collected after the deposition of each bilayer comprised of poly(allylamine hydrocholoride) (PAH) as a positively charged polymer and poly(styrene sulfonate) (PSS) as a negatively charged polymer. […] It is instructive to define a parameter called distance-dependent refractive index sensitivity (σ), which is the LSPR shift caused by the deposition of a 1 nm thick dielectric layer (polyelectrolyte multilayers in the present case) at a predetermined distance from the surface of the nanotransducer. The extinction measurements after troponin binding to the bioconjugated AuNR were performed in the dry state. So, considering that the thickness of peptide and antibody in their dry state is ~1 nm and ~4.2 nm for peptide and antibody, respectively, the values of σ are computed as shown in Fig. 5E. For peptide recognition elements, σ is found to be 6.67 nm/nm whereas in case of antibody, σ is found to be 4.33 nm/nm. From the distance-dependent refractive index sensitivity measurements, it can be seen that the local refractive index sensitivity with peptide recognition elements is nearly 50% higher than compared to that with antibody-based recognition elements. […] This discrepancy can possibly be due to the higher number of cTnI molecules bound on the AuNR surface in the case of the peptide recognition elements compared to antibodies. The low steric hindrance of the peptides facilitates a higher density of the recognition elements on the surface of the Au nanotransducers and thus a higher density of cTnI molecules. This observation will be further explored in future studies in order to maximize the sensitivity of our BPDs.
# Glass substrates were modified by 1% P2VP followed by the adsorption of AuNR. […]
# cTnI (troponin I) = assay: LSPR detection of cTnI with bioplasmonic paper device in buffer; format: binding, human; conditions: highest concentration tested, 3.53 μg/ml cTnI
# Protocol: To probe the sensing capability of the BPDs, we exposed the BPDs to troponin I (3.53 μg/ml in 0.1 M TBS pH 8.0). […] The higher sensitivity of peptide-AuNR compared to antibody-AuNR is due to differences in the thickness of the peptide and antibody adsorbate layer as will be discussed in detail below. To probe the limit of detection in both cases, BPDs with bioconjugated AuNR were exposed to varying concentrations of cTnI. […] To compare the selectivity of the peptide and antibody towards cTnI, we used human serum albumin (HSA) as an interfering protein (Supplemental Figure S11). […] A regular laboratory filter paper (Whatman #1) was used for the absorption of nanorods. A 1 cm × 1 cm paper strip is taken and immersed in a solution of AuNR conjugates (peptide and antibody) and left overnight at 4 °C. The paper strip was taken out and washed with tris buffer and immersed in different concentrations of troponin in tris buffer (pH 8) for 2 hours at 4 °C. It was removed and washed thoroughly with tris buffer and dried under a stream of nitrogen. Extinction spectra from paper substrates were collected using a CRAIC microspectrophotometer (QDI 302) coupled to a Leica optical microscope (DM 4000 M) with 20× objective in the range of 450–800 nm with 10 accumulations and 100 ms exposure time in reflection mode. The spectral resolution of the microspectrophotometer is 0.2 nm. […]
# [2] = AFM dry state thickness of recognition layer on AuNR; format: physicochemical
# Protocol: We have also used dynamic light scattering (DLS) to monitor the changes in the hydrodynamic size of the AuNR upon bioconjugation with cTnI binding peptide or anti-cTnI. […] The dry state thickness of the peptide and antibody recognition layers was measured using atomic force microscopy (AFM; Supplemental Figure S6).
# Now we turn our attention to the structure-based functional mechanism of the peptide-conjugated BPDs. The structure and thickness layer of the peptide recognition element on the gold surface was also investigated using molecular dynamic simulations (described in the supplemental section). […] The amino acid Trp[10] in the peptide (a possible binding residue to cTnI) is distal to the gold surface and accessible for cTnI binding. […] These key residues provide structural information and will be used in further studies for the optimization of peptide recognition elements for cTnI. Of importance to this study, the thickness of the biomolecule adlayer can be obtained from our molecular dynamic simulations. […] The smaller thickness of the peptide layer renders higher sensitivity of BPDs using peptide recognition elements. For calculating the thickness layer from our computational models, the gold surface is aligned in the XY plane and the thickness of the peptide or peptide-cTnI complex on the gold surface is calculated as the maximum difference of the Z-coordinates. […]
# [3] = biological target: T2, Human Cardiac Troponin-I Recombinant (human, UniProt P19429 1-210); assay: pull-down; peptide-conjugated AuNRs with cTnI; SDS-PAGE, blotted with polyclonal goat antibody; conditions: both partners purified
# T2 construct: human cardiac troponin I, recombinant, bought; also called cTnI; source: bought: Life Diagnostics, USA (recombinant)
# T2 sequence (P19429 whole entry): as above
molecule,measurement,setting,value
-FYSHSFHENWPS-,binding affinity to cTnI,cTnI,nanomolar
-FYSHSFHENWPSC- [cysteine-modified peptide],distance-dependent refractive index sensitivity (σ),"[1]; AuNRs on glass, PAH/PSS multilayers, at dry thickness of ~1 nm (peptide) or ~4.2 nm (antibody)",6.67 nm/nm
same,corresponding LSPR shift from the distance-dependence curve,[1]; from σ curve of Fig. 5E,24.5 nm
same,local refractive index sensitivity higher than with antibody-based recognition elements,[1]; peptide vs antibody,~50%
same,LSPR shift higher than with antibodies as recognition elements,cTnI (troponin I),~100%
same,thickness of recognition layer on AuNR,[2],0.96 nm and ~ 0.9 nm
B1,binding result,[3],binds

# — article PMC4639779, “Peptide Functionalized Gold Nanorods for the Sensitive Detection of a Cardiac Biomarker Using Plasmonic Paper Devices” (Scientific Reports, 2015)
